Reference: article PMC5560734, “Diflunisal inhibits prestin by chloride-dependent mechanism” (PLoS ONE, 2017)

Biological target: T1, prestin (SLC26A5) (Mus musculus, UniProt Q99NH7)
T1 construct: endogenous prestin in isolated C57BL/6 mouse outer hair cells
T1 sequence (Q99NH7 1-744): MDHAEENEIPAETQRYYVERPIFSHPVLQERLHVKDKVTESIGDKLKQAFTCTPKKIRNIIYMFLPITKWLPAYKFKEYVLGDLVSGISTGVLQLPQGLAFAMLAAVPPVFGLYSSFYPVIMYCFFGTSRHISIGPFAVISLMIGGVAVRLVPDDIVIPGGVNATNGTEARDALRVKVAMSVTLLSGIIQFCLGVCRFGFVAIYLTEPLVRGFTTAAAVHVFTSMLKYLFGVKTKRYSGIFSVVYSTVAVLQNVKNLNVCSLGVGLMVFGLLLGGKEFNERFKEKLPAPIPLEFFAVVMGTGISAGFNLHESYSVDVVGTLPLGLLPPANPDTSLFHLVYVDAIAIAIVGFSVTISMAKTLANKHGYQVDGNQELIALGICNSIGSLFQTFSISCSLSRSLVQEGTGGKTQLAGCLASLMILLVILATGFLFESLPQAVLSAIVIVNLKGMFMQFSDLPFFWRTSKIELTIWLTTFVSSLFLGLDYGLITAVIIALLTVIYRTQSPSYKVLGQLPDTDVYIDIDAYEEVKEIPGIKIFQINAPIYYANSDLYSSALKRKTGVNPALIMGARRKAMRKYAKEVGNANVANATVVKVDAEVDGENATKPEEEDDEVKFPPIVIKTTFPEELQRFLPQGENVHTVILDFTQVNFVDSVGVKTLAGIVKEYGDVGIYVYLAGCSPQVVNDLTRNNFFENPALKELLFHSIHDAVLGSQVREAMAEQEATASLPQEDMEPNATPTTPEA
Assay: whole-cell patch clamp of outer hair cells, non-linear capacitance / charge transfer (Qmax) at […] intracellular chloride
Format: cell-based

`O=C(O)c1cc(-c2ccc(F)cc2F)ccc1O` [DFL, diflunisal] was tested, and the IC50 was 98 µM.
